Laboratory results as given in US12310967B2, “Compositions and methods of treatment for neurological disorders comprising motor neuron diseases” (Gliapharm SA, priority 2017, dated 2025).

Legend:
primary mouse astrocytes = assay: Extracellular lactate quantification, Example 2; type: cell-based; details: Astrocyte, 3 nM to 30 μM, 1.5 h, read-out: EC50 release of lactate
Procedure: Primary cultures of cerebrocortical astrocytes were obtained from 1 to 2-day-old OF1 mouse pups (Charles River). Briefly, cortices were isolated and minced in small pieces under a dissecting microscope. The cells were incubated for 30 min at 37° C. in a solution containing 20 U/ml papain, 1 mM L-cysteine and 10 kU/ml DNase I. After dissociation, papain activity was stopped by the addition of fetal calf serum (FCS). Single-cell suspension was then obtained by mechanical dissociation, which consisted in cells trituration in a DMEM D7777 medium supplemented with 44 mm NaHCO3, 10 ml/L antibiotic/antimycotic solution and 10% FCS. […]
Secretion of L-lactate was measured in the extracellular medium of 96-well plated astrocytes after 90 min stimulation (at 37° C., in 5% CO2/95% air conditions) with Vehicle (DMSO), the compounds of the invention (100 nM to 100 μM) or positive control. […] To quantify lactate concentrations in the extracellular medium, 200 μl of a 0.2M Glycine-semicarbazide buffer (pH 10) containing 3 mM NAD and 14 U/ml LDH was added to each well of a 96-well plate containing 30 μl aliquots of extracellular medium. […] Fluorescence intensity (340 nm excitation/450 nm emission), which represents the amount of NADH produced, was measured, and lactate concentration values were determined relative to a standard curve of L-lactate concentrations. […]

[1] = In vivo pharmacokinetics (microdialysis of prefrontal cortex and plasma); parameters: species or system mouse; details: gavage 100 mg/kg; therapeutic range 100 nM to 1 uM
Procedure: Mice were anesthetized using isoflurane (2% and 800 mL/min 02). Before surgery, Finadyne (1 mg/kg, s.c.) was administered for analgesia during surgery and the post-surgical recovery period. A mixture of bupivacaine and epinephrine was used for local anesthesia of the incision site of the periost of the skull.
The animals were placed in a stereotaxic frame (Kopf instruments, USA). MetaQuant microdialysis probes with a 3 mm exposed polyacrylonitrile membrane (MQ-PAN 3/3, Brainlink, the Netherlands) were implanted into the prefrontal cortex (coordinates for the tip of the probe: AP=+2.0 mm (to bregma), lateral=−0.7 mm (to midline), ventral=−3.3 mm (to dura), with the incisor bar set at 0.0 mm and an angle of 8°). All coordinates were based on “The mouse brain in stereotaxic coordinates” by Paxinos and Franklin (2004). The probes were attached to the skull with a stainless steel screw and dental cement (Fuji Plus Capsules, Henry Schein, the Netherlands).
In the same surgical procedure, a catheter was placed into the jugular vein to accommodate blood sampling. An indwelling cannula was inserted into the right jugular vein, and exteriorized through an incision on top of the skull. […]
PK was measured for GP-04, GP-05, GP-07, GP-R1 and GP-P1 in the prefrontal cortex and plasma of wild type C56Bl/6 mice by CRO Brainsonline.

SMILES | EC50 (primary mouse astrocytes) | levels in the prefrontal cortex [1]
Cc1ccccc1NC(=O)C1CCCN(c2ncnc3oc(C)c(C)c23)C1 (stereo not drawn) [F228-0422] | 590 nM | 
CC(=O)N1CCc2sc(S(=O)(=O)N3CCN(c4ccccc4C)CC3)cc2C1 [P025-0159] |  | need chemical improvement
COc1cc(C)c(Cl)cc1S(=O)(=O)NCc1ccncc1 [T5580243] |  | at therapeutic range
